Test results: the kinase profiling compilation of Christmann-Franck et al. (2016)

How the values were obtained:
Assay in all cases: radiometric filter-binding kinase assay
BRSK1 (human) = BRSK1 (human) (UniProt Q8TDC3)
BTK (human) = BTK (human) (UniProt Q06187)
CAMKK2 (human) = CAMKK2 (human) (UniProt Q96RR4)
CDK2 CCNA2 (human) = CDK2 CCNA2 (human) (UniProt P20248+P24941)
CSK (human) = CSK (human) (UniProt P41240)
CaMK1 (human) = CaMK1 (human) (UniProt Q14012)
DYRK2 (human) = DYRK2 (human) (UniProt Q92630)
EPHA2 (human) = EPHA2 (human) (UniProt P29317)
EPHA4 (human) = EPHA4 (human) (UniProt P54764)
EPHB2 (human) = EPHB2 (human) (UniProt P29323)
ERBB4 (human) = ERBB4 (human) (UniProt Q15303)
HIPK3 (human) = HIPK3 (human) (UniProt Q9H422)
INSR (human) = INSR (human) (UniProt P06213)
INSRR (human) = INSRR (human) (UniProt P14616)
JAK2 JH1 JH2 (human) = JAK2 JH1 JH2 (human) (UniProt O60674)
LCK (mouse) = details: accession and sequence are those of the human protein
MAP2K1 (human) = MAP2K1 (human) (UniProt Q02750)
MAPK15 (human) = MAPK15 (human) (UniProt Q8TD08)
MAPKAPK2 (human) = MAPKAPK2 (human) (UniProt P49137)
MARK1 (human) = MARK1 (human) (UniProt Q9P0L2)
MARK2 (human) = MARK2 (human) (UniProt Q7KZI7)
MINK1 (human) = MINK1 (human) (UniProt Q8N4C8)
MKNK1 (human) = MKNK1 (human) (UniProt Q9BUB5)
MST4 (human) = MST4 (human) (UniProt Q9P289)
NEK2 (human) = NEK2 (human) (UniProt P51955)
NEK6 (human) = NEK6 (human) (UniProt Q9HC98)
NUAK1 (human) = NUAK1 (human) (UniProt O60285)
PAK7 (human) = PAK7 (human) (UniProt Q9P286)
PHKG1 (human) = PHKG1 (human) (UniProt Q16816)
PRKAA1 or PRKAA2 (rat) = details: accession and sequence are those of the human protein
PRKACA (human) = PRKACA (human) (UniProt P17612)
PRKCA (human) = PRKCA (human) (UniProt P17252)
RIPK2 (human) = RIPK2 (human) (UniProt O43353)
RPS6KA5 KD1 KD2 (human) = RPS6KA5 KD1 KD2 (human) (UniProt O75582)
SRPK1 (human) = SRPK1 (human) (UniProt Q96SB4)

Chain of INSR (human) (P06213 whole entry, looked up): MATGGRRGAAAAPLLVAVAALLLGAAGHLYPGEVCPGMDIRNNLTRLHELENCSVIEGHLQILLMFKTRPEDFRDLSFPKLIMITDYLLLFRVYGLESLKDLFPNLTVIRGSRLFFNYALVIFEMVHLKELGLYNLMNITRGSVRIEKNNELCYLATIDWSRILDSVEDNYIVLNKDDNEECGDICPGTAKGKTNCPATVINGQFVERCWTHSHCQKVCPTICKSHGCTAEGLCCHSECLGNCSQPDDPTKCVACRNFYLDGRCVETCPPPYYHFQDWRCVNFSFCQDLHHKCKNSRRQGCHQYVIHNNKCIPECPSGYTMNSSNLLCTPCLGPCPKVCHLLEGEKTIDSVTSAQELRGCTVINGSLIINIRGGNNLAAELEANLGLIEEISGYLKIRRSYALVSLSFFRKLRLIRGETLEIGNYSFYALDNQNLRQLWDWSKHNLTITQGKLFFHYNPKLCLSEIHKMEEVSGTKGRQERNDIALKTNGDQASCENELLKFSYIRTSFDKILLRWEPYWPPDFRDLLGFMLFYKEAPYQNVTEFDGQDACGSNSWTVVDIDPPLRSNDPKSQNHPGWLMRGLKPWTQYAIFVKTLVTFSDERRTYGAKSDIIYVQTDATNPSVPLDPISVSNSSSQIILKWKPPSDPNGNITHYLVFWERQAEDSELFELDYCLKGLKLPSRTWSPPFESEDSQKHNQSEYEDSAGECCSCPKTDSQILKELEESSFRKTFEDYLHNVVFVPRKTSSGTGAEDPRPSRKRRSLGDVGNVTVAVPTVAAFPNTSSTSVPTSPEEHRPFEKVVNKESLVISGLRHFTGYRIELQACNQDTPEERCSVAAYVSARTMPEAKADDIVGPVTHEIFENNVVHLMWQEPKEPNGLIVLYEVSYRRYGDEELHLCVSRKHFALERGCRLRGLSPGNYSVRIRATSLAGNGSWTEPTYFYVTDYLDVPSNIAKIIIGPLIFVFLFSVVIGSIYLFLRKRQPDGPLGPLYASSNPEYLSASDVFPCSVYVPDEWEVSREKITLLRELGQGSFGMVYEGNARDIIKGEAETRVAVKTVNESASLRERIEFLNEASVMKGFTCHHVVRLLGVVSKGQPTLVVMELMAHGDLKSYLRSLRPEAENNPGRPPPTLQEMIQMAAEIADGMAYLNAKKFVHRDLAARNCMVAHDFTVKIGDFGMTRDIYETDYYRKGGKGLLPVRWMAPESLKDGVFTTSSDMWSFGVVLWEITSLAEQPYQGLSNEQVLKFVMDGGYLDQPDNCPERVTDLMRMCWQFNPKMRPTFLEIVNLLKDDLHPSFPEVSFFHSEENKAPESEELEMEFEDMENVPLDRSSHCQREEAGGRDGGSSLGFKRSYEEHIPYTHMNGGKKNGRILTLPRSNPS
Chain of ERBB4 (human) (Q15303 whole entry, looked up): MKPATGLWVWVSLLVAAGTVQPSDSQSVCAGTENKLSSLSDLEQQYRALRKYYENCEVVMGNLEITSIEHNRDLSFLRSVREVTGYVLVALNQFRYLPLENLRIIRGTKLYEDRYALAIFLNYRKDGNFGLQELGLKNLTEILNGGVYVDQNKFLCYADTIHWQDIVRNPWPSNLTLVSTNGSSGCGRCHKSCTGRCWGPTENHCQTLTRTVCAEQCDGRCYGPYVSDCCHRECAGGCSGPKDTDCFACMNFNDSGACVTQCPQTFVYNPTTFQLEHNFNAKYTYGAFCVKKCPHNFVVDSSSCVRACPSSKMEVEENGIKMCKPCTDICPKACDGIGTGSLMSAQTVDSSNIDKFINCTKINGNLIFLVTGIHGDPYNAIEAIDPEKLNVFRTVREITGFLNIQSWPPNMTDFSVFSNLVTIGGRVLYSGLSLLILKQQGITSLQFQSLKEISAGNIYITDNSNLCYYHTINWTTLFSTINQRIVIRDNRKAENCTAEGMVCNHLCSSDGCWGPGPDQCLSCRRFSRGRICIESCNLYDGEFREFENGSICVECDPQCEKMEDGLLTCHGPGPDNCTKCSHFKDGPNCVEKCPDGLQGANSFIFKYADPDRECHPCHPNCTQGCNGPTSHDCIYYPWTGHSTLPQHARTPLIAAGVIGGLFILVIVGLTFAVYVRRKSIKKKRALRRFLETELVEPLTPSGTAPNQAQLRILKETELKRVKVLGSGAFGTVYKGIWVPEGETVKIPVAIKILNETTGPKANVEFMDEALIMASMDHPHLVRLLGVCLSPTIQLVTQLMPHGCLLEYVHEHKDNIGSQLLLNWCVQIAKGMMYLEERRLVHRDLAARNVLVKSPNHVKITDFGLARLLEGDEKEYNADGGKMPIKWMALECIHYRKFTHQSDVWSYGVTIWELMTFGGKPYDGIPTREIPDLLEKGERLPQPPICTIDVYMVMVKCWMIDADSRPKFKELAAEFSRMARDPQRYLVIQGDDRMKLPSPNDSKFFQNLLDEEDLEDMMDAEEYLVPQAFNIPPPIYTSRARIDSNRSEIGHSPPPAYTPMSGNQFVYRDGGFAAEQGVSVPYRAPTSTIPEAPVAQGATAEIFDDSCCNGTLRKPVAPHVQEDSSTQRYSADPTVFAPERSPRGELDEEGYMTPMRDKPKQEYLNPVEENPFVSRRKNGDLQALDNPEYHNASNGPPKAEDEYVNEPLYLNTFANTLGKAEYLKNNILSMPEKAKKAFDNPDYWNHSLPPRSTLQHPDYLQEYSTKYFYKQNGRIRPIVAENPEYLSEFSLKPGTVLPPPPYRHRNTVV
Chain of MINK1 (human) (Q8N4C8 whole entry, looked up): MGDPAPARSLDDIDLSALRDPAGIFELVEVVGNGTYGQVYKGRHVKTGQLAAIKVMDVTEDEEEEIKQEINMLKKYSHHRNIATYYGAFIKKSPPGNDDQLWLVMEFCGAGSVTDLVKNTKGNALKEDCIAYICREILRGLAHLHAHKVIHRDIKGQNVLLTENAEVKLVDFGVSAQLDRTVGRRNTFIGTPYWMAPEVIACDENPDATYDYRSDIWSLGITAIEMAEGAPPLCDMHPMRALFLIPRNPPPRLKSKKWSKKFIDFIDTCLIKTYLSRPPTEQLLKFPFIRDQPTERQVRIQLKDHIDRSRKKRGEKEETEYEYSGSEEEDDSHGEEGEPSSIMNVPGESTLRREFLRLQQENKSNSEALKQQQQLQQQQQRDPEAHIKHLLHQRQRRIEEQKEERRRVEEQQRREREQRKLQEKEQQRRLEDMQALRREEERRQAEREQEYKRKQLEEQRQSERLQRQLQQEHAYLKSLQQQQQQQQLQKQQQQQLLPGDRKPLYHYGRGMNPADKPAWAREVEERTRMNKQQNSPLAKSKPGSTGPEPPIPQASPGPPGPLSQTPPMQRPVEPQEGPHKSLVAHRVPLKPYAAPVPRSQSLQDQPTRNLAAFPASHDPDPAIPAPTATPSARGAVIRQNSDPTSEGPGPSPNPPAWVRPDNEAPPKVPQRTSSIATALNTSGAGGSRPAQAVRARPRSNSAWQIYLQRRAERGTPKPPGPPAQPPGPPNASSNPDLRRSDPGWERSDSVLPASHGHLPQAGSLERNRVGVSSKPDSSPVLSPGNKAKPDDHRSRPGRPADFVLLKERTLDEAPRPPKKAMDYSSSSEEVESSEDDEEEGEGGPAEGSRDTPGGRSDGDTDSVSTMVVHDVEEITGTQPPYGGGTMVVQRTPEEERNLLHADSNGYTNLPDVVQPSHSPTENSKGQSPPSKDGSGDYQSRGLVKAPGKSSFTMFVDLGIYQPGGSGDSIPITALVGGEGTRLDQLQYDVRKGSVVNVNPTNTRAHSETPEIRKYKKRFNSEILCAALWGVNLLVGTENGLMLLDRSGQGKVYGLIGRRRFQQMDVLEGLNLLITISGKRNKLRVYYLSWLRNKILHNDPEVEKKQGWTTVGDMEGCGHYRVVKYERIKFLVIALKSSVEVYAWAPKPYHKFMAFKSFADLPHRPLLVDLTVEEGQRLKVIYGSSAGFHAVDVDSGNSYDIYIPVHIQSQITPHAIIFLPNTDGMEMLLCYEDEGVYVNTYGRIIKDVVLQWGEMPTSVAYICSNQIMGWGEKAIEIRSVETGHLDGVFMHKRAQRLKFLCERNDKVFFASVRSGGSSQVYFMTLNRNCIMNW
Chain of BRSK1 (human) (Q8TDC3 whole entry, looked up): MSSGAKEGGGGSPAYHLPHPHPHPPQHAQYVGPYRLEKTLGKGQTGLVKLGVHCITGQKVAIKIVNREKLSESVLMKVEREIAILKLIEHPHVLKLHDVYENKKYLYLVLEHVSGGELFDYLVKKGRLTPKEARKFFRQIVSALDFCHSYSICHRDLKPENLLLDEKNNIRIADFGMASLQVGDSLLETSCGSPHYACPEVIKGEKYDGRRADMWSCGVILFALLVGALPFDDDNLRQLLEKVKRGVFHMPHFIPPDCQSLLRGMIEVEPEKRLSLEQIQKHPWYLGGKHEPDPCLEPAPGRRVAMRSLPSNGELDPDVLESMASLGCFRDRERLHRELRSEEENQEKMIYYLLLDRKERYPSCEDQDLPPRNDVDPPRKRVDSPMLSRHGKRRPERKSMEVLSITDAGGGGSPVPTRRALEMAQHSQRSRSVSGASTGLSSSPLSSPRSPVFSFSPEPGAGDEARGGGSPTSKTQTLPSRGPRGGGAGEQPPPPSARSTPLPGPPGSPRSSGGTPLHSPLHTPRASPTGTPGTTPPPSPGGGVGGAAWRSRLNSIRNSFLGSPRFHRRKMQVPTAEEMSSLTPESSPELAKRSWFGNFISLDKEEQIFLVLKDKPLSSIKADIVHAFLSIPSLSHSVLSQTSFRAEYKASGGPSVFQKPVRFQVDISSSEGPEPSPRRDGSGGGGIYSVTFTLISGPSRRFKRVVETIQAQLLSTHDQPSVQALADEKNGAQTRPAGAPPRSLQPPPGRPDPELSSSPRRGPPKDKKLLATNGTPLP
Chain of NEK6 (human) (Q9HC98 whole entry, looked up): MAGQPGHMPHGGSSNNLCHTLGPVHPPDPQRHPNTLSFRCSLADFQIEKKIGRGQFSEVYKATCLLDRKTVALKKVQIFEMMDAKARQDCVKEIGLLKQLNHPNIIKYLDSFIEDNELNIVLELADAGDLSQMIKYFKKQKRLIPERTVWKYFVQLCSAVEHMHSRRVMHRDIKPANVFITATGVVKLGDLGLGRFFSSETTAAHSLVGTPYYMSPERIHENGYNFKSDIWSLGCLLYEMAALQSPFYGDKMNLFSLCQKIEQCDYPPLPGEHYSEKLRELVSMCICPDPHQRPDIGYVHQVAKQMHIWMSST

`O=c1c(O)c(-c2ccc(O)c(O)c2)oc2cc(O)c(O)c(O)c12` showed a residual activity (BRSK1 (human); compound 1.0 µM) of 82%, a residual activity (BRSK1 (human); compound 10.0 µM) of 7% and a residual activity (BTK (human); compound 1.0 µM) of 61%. For the same molecule, the residual activity (BTK (human); compound 10.0 µM) was 32%, the residual activity (CAMKK2 (human); compound 1.0 µM) was 72% and the residual activity (CAMKK2 (human); compound 10.0 µM) was 61%. The residual activity (CDK2 CCNA2 (human); compound 1.0 µM) was 89%, the residual activity (CDK2 CCNA2 (human); compound 10.0 µM) was 32% and the residual activity (CSK (human); compound 1.0 µM) was 125%. For the same molecule, the residual activity (CSK (human); compound 10.0 µM) was 74%, the residual activity (CaMK1 (human); compound 1.0 µM) was 49% and the residual activity (CaMK1 (human); compound 10.0 µM) was 19%. The residual activity (DYRK2 (human); compound 1.0 µM) was 45%, the residual activity (DYRK2 (human); compound 10.0 µM) was 1% and the residual activity (EPHA2 (human); compound 1.0 µM) was 94%. The residual activity (EPHA2 (human); compound 10.0 µM) was 73%, the residual activity (EPHA4 (human); compound 1.0 µM) was 117% and the residual activity (EPHA4 (human); compound 10.0 µM) was 74%. The residual activity (EPHB2 (human); compound 1.0 µM) was 69%, the residual activity (ERBB4 (human); compound 1.0 µM) was 109% and the residual activity (ERBB4 (human); compound 10.0 µM) was 44%. It also gave a residual activity (HIPK3 (human); compound 1.0 µM) of 88%, a residual activity (HIPK3 (human); compound 10.0 µM) of 55% and a residual activity (INSR (human); compound 1.0 µM) of 86%. For the same molecule, the residual activity (INSR (human); compound 10.0 µM) was 62%, the residual activity (INSRR (human); compound 1.0 µM) was 76% and the residual activity (INSRR (human); compound 10.0 µM) was 21%. The residual activity (JAK2 JH1 JH2 (human); compound 1.0 µM) was 91%, the residual activity (JAK2 JH1 JH2 (human); compound 10.0 µM) was 13% and the residual activity (LCK (mouse); compound 1.0 µM) was 102%. For the same molecule, the residual activity (LCK (mouse); compound 10.0 µM) was 95%, the residual activity (MAP2K1 (human); compound 1.0 µM) was 84% and the residual activity (MAP2K1 (human); compound 10.0 µM) was 24%. It also gave a residual activity (MAPK15 (human); compound 1.0 µM) of 89%, a residual activity (MAPK15 (human); compound 10.0 µM) of 65% and a residual activity (MAPKAPK2 (human); compound 1.0 µM) of 94%. The residual activity (MAPKAPK2 (human); compound 10.0 µM) was 53%, the residual activity (MARK1 (human); compound 1.0 µM) was 40% and the residual activity (MARK1 (human); compound 10.0 µM) was 11%. The residual activity (MARK2 (human); compound 1.0 µM) was 86%, the residual activity (MARK2 (human); compound 10.0 µM) was 26% and the residual activity (MINK1 (human); compound 1.0 µM) was 56%. It also gave a residual activity (MINK1 (human); compound 10.0 µM) of 10%, a residual activity (MKNK1 (human); compound 1.0 µM) of 61% and a residual activity (MKNK1 (human); compound 10.0 µM) of 12%. It also gave a residual activity (MST4 (human); compound 1.0 µM) of 87%, a residual activity (MST4 (human); compound 10.0 µM) of 58% and a residual activity (NEK2 (human); compound 1.0 µM) of 86%. It also gave a residual activity (NEK2 (human); compound 10.0 µM) of 13%, a residual activity (NEK6 (human); compound 1.0 µM) of 99% and a residual activity (NEK6 (human); compound 10.0 µM) of 21%. The residual activity (NUAK1 (human); compound 1.0 µM) was 33%, the residual activity (NUAK1 (human); compound 10.0 µM) was 12% and the residual activity (PAK7 (human); compound 1.0 µM) was 67%. For the same molecule, the residual activity (PAK7 (human); compound 10.0 µM) was 55%, the residual activity (PHKG1 (human); compound 1.0 µM) was 98% and the residual activity (PHKG1 (human); compound 10.0 µM) was 2%. The residual activity (PRKAA1 or PRKAA2 (rat); compound 1.0 µM) was 73%, the residual activity (PRKAA1 or PRKAA2 (rat); compound 10.0 µM) was 9% and the residual activity (PRKACA (human); compound 1.0 µM) was 109%. The residual activity (PRKACA (human); compound 10.0 µM) was 79%, the residual activity (PRKCA (human); compound 1.0 µM) was 99% and the residual activity (PRKCA (human); compound 10.0 µM) was 80%. The residual activity (RIPK2 (human); compound 1.0 µM) was 83%, the residual activity (RIPK2 (human); compound 10.0 µM) was 7% and the residual activity (RPS6KA5 KD1 KD2 (human); compound 1.0 µM) was 88%. The residual activity (RPS6KA5 KD1 KD2 (human); compound 10.0 µM) was 38%, the residual activity (SRPK1 (human); compound 1.0 µM) was 55% and the residual activity (SRPK1 (human); compound 10.0 µM) was 3%.
`Oc1ccc(/C=C/c2cc(O)cc(O)c2)cc1` showed a residual activity (BRSK1 (human); compound 10.0 µM) of 56%, a residual activity (BTK (human); compound 10.0 µM) of 75% and a residual activity (CAMKK2 (human); compound 1.0 µM) of 107%. It also gave a residual activity (CAMKK2 (human); compound 10.0 µM) of 74%, a residual activity (CAMKK2 (human); compound 50.0 µM) of 28% and a residual activity (CDK2 CCNA2 (human); compound 1.0 µM) of 103%. It also gave a residual activity (CDK2 CCNA2 (human); compound 10.0 µM) of 59%, a residual activity (CDK2 CCNA2 (human); compound 50.0 µM) of 34% and a residual activity (CSK (human); compound 1.0 µM) of 102%. It also gave a residual activity (CSK (human); compound 10.0 µM) of 87%, a residual activity (CSK (human); compound 50.0 µM) of 68% and a residual activity (CaMK1 (human); compound 1.0 µM) of 75%. For the same molecule, the residual activity (CaMK1 (human); compound 10.0 µM) was 73%, the residual activity (CaMK1 (human); compound 50.0 µM) was 38% and the residual activity (DYRK2 (human); compound 1.0 µM) was 40%. It also gave a residual activity (DYRK2 (human); compound 10.0 µM) of 15%, a residual activity (DYRK2 (human); compound 50.0 µM) of 1% and a residual activity (EPHA2 (human); compound 10.0 µM) of 81%. For the same molecule, the residual activity (EPHA4 (human); compound 10.0 µM) was 107%, the residual activity (EPHB2 (human); compound 10.0 µM) was 116% and the residual activity (ERBB4 (human); compound 10.0 µM) was 59%. The residual activity (HIPK3 (human); compound 1.0 µM) was 93%, the residual activity (HIPK3 (human); compound 10.0 µM) was 41% and the residual activity (HIPK3 (human); compound 50.0 µM) was 12%. It also gave a residual activity (INSR (human); compound 10.0 µM) of 50%, a residual activity (INSRR (human); compound 10.0 µM) of 62% and a residual activity (JAK2 JH1 JH2 (human); compound 10.0 µM) of 27%. It also gave a residual activity (LCK (mouse); compound 1.0 µM) of 115%, a residual activity (LCK (mouse); compound 10.0 µM) of 97% and a residual activity (LCK (mouse); compound 50.0 µM) of 59%. It also gave a residual activity (MAP2K1 (human); compound 1.0 µM) of 99%, a residual activity (MAP2K1 (human); compound 10.0 µM) of 81% and a residual activity (MAP2K1 (human); compound 50.0 µM) of 75%. The residual activity (MAPK15 (human); compound 1.0 µM) was 36%, the residual activity (MAPK15 (human); compound 10.0 µM) was 10% and the residual activity (MAPK15 (human); compound 50.0 µM) was 12%. The residual activity (MAPKAPK2 (human); compound 1.0 µM) was 118%, the residual activity (MAPKAPK2 (human); compound 10.0 µM) was 88% and the residual activity (MAPKAPK2 (human); compound 50.0 µM) was 71%. It also gave a residual activity (MARK1 (human); compound 10.0 µM) of 96%, a residual activity (MARK2 (human); compound 10.0 µM) of 86% and a residual activity (MINK1 (human); compound 10.0 µM) of 66%. It also gave a residual activity (MKNK1 (human); compound 1.0 µM) of 102%, a residual activity (MKNK1 (human); compound 10.0 µM) of 66% and a residual activity (MKNK1 (human); compound 50.0 µM) of 125%. The residual activity (MST4 (human); compound 10.0 µM) was 68%, the residual activity (NEK2 (human); compound 1.0 µM) was 96% and the residual activity (NEK2 (human); compound 10.0 µM) was 91%. The residual activity (NEK2 (human); compound 50.0 µM) was 83%, the residual activity (NEK6 (human); compound 1.0 µM) was 104% and the residual activity (NEK6 (human); compound 10.0 µM) was 96%. It also gave a residual activity (NEK6 (human); compound 50.0 µM) of 87%, a residual activity (NUAK1 (human); compound 10.0 µM) of 68% and a residual activity (PAK7 (human); compound 1.0 µM) of 102%. It also gave a residual activity (PAK7 (human); compound 10.0 µM) of 83%, a residual activity (PAK7 (human); compound 50.0 µM) of 75% and a residual activity (PHKG1 (human); compound 1.0 µM) of 58%. For the same molecule, the residual activity (PHKG1 (human); compound 10.0 µM) was 21%, the residual activity (PHKG1 (human); compound 50.0 µM) was 23% and the residual activity (PRKAA1 or PRKAA2 (rat); compound 1.0 µM) was 103%. For the same molecule, the residual activity (PRKAA1 or PRKAA2 (rat); compound 10.0 µM) was 73%, the residual activity (PRKAA1 or PRKAA2 (rat); compound 50.0 µM) was 16% and the residual activity (PRKACA (human); compound 1.0 µM) was 106%. It also gave a residual activity (PRKACA (human); compound 10.0 µM) of 101%, a residual activity (PRKACA (human); compound 50.0 µM) of 91% and a residual activity (PRKCA (human); compound 1.0 µM) of 96%. It also gave a residual activity (PRKCA (human); compound 10.0 µM) of 82%, a residual activity (PRKCA (human); compound 50.0 µM) of 58% and a residual activity (RIPK2 (human); compound 10.0 µM) of 51%. The residual activity (RPS6KA5 KD1 KD2 (human); compound 1.0 µM) was 80%, the residual activity (RPS6KA5 KD1 KD2 (human); compound 10.0 µM) was 65% and the residual activity (RPS6KA5 KD1 KD2 (human); compound 50.0 µM) was 16%. For the same molecule, the residual activity (SRPK1 (human); compound 1.0 µM) was 111%, the residual activity (SRPK1 (human); compound 10.0 µM) was 87% and the residual activity (SRPK1 (human); compound 50.0 µM) was 93%.
